Patent US20250025443A1, “COMPOUNDS AND METHODS FOR TREATING CORONA VIRUSES” (CLEAR CREEK BIO, INC., priority 2021, published 2025)

molecular target: SARS-CoV-2 Papain-Like Protease (PLpro) (Severe acute respiratory syndrome coronavirus 2 (2019-nCoV) (SARS-CoV-2), UniProt P0DTD1); assay: biochemical; conditions: PLpro 6.25 nM, substrate 25 μM, 60 min at 25° C.; for more potent compounds PLpro 1 nM, 120 min; read-out: PLpro IC50

With Cc1ccc(NC2CNC2)cc1C(=O)NC(C)c1cccc2c1OCCO2 (stereo not shown) [Compound 168, 5-(Azetidin-3-ylamino)-N-(1-(2,3-dihydrobenzo[b][1,4]dioxin-5-yl)ethyl)-2-methylbenzamide] the IC50 was over 5000 nM.

same assay, conditions: PLpro IC50, SARS-CoV-2 PLpro enzymatic fluorescence assay

Compound Cc1ccc(C2=CCNCC2)cc1C(=O)NC1(c2cccc3ccccc23)CC1 [Compound 399, 2-Methyl-N-(1-(naphthalen-1-yl)cyclopropyl)-5-(1,2,3,6-tetrahydropyridin-4-yl)benzamide] has an IC50 of under 100 nM.

same assay, conditions: PLpro enzymatic fluorescence assay; class symbols; read-out: PLpro IC50

Cc1ccc(OC[C@@H]2CCN2C)cc1C(=O)NC1(c2cc(-c3ccco3)cc3ncccc23)CC1 (stereo in doubt) [Compound 604, N-(1-(7-(Furan-2-yl)quinolin-5-yl)cyclopropyl)-2-methyl-5-((1-methylazetidin-2-yl)methoxy)benzamide] and CC(=O)c1ncc(-c2cc(C3(NC(=O)c4cc(OC[C@@H]5CCN5C)ccc4C)CC3)c3cccnc3c2)o1 [Compound 806, (S)-N-(1-(7-(2-Acetyloxazol-5-yl)quinolin-5-yl)cyclopropyl)-2-methyl-5-((1-methylazetidin-2-yl)methoxy)benzamide] cannot be ordered by IC50: under 100 nM for the first, under 100 nM for the second.

COc1cc(C2(NC(=O)c3cc(OC[C@@H]4CCCCN4C)ccc3C)CC2)c2cccnc2c1 [Compound 553, (S)-N-(1-(7-Methoxyquinolin-5-yl)cyclopropyl)-2-methyl-5-((1-methylpiperidin-2-yl)methoxy)benzamide] and COc1cc(C2(NC(=O)c3cc(OC[C@@H]4CC[C@@H]5CN(C)CCN54)ccc3C)CC2)c2cccnc2c1 [Compound 784] cannot be ordered by IC50: under 100 nM for the first, under 100 nM for the second.

Cc1cc(-c2cc(C3(NC(=O)c4cc(OC[C@@H]5CCN5)ccc4C)CC3)c3cccnc3c2)cs1 [Compound 640, (S)-5-(Azetidin-2-ylmethoxy)-2-methyl-N-(1-(7-(5-methylthiophen-3-yl)quinolin-5-yl)cyclopropyl)benzamide] and Cc1ccc(OC[C@@H]2CCN2)cc1C(=O)NC1(c2cc(-c3nc4ccccc4o3)cc3ncccc23)CC1 [Compound 711, (S)-5-(Azetidin-2-ylmethoxy)-N-(1-(7-(benzo[d]oxazol-2-yl)quinolin-5-yl)cyclopropyl)-2-methylbenzamide] cannot be ordered by IC50: under 100 nM for the first, under 100 nM for the second.

Cc1ccc2c(C3(NC(=O)c4cc(OC[C@@H]5CCN5C)ccc4C)CC3)cc(O)cc2n1 [Compound 809, (S)-N-(1-(7-Hydroxy-2-methylquinolin-5-yl)cyclopropyl)-2-methyl-5-((1-methylazetidin-2-yl)methoxy)benzamide] and Cc1ccc2c(C3(NC(=O)c4cc(OC[C@@H]5CCN5C)ccc4C)CC3)cc(NS(C)(=O)=O)cc2n1 [Compound 825, (S)-2-Methyl-N-(1-(2-methyl-7-(methylsulfonamido)quinolin-5-yl)cyclopropyl)-5-((1-methylazetidin-2-yl)methoxy)benzamide] cannot be ordered by IC50: under 100 nM for the first, under 100 nM for the second.

C=Cc1cc(C2(NC(=O)c3cc(OC[C@H](C)N)ccc3C)CC2)c2cccnc2c1 [Compound 735, (S)-5-(2-Aminopropoxy)-2-methyl-N-(1-(7-vinylquinolin-5-yl)cyclopropyl)benzamide] and CN[C@H](C)COc1ccc(C)c(C(=O)NC2(c3cc(OC)cc4ncccc34)CC2)c1 [Compound 573, (R)-N-(1-(7-Methoxyquinolin-5-yl)cyclopropyl)-2-methyl-5-(2-(methylamino)propoxy)benzamide] cannot be ordered by IC50: under 100 nM for the first, under 100 nM for the second.

Compared with COc1cc(C2(NC(=O)c3cc(OCc4ccccn4)ccc3C)CC2)c2cccnc2c1 [Compound 562, N-(1-(7-Methoxyquinolin-5-yl)cyclopropyl)-2-methyl-5-(pyridin-2-ylmethoxy)benzamide], Cc1ccc(OC[C@@H]2CCN2C)cc1C(=O)NC1(c2cc(Oc3ccccc3)cc3ncccc23)CC1 [Compound 592, (S)-2-Methyl-5-((1-methylazetidin-2-yl)methoxy)-N-(1-(7-phenoxyquinolin-5-yl)cyclopropyl)benzamide] is lower in IC50: 100 to 1000 nM for the first, under 100 nM for the second.

CC(=O)c1cc(C2(NC(=O)c3cc(OC[C@@H]4CCN4C)ccc3C)CC2)c2cccnc2c1 [Compound 638, (S)-N-(1-(7-Acetylquinolin-5-yl)cyclopropyl)-2-methyl-5-((1-methylazetidin-2-yl)methoxy)benzamide] and Cc1ccc(OC[C@@H]2CCN2C)cc1C(=O)NC1(c2cc(-c3ccn(-c4ccccc4)n3)cc3ncccc23)CC1 [Compound 659, (S)-2-Methyl-5-((1-methylazetidin-2-yl)methoxy)-N-(1-(7-(1-phenyl-1H-pyrazol-3-yl)quinolin-5-yl)cyclopropyl)benzamide] cannot be ordered by IC50: under 100 nM for the first, under 100 nM for the second.

COc1cc(C2(NC(=O)c3cc(OC[C@H](C)N)ccc3C)CC2)c2ccncc2c1 [Compound 536, (S)-5-(2-Aminopropoxy)-N-(1-(7-methoxyisoquinolin-5-yl)cyclopropyl)-2-methylbenzamide] and Cc1ccc(OC[C@@H]2CCN2C)cc1C(=O)NC1(c2cc(-c3ccc(CN4CCCC4)s3)cc3ncccc23)CC1 [Compound 669, (S)-2-Methyl-5-((1-methylazetidin-2-yl)methoxy)-N-(1-(7-(5-(pyrrolidin-1-ylmethyl)thiophen-2-yl)quinolin-5-yl)cyclopropyl)benzamide] cannot be ordered by IC50: under 100 nM for the first, under 100 nM for the second.

same assay, conditions: SARS-CoV-2 PLpro enzymatic fluorescence assay; read-out: PLpro IC50

First: Cc1cc2ccn(C)c2cc1C(=O)NC1(c2cccc3ccccc23)CC1 [Compound 201, 1,5-Dimethyl-N-(1-(naphthalen-1-yl)cyclopropyl)-1H-indole-6-carboxamide]
Second: Cc1cc2ccn(C3CN(C)C3)c2cc1C(=O)NC1(c2cccc3ccccc23)CC1 [Compound 290, 5-Methyl-1-(1-methylazetidin-3-yl)-N-(1-(naphthalen-1-yl)cyclopropyl)-1H-indole-6-carboxamide]
The IC50 of the first is higher: 100 to 1000 nM for the first, under 100 nM for the second. The second is the more potent here.

Cc1ccc(OC[C@H]2C[C@@H](O)CN2C)cc1C(=O)NC1(c2cccc3ccccc23)CC1 (single isomer, unassigned) [Compound 440] and Cc1ccc(OC[C@H]2C[C@@H](O)CN2)cc1C(=O)NC1(c2cccc3ccccc23)CC1 (racemic) [Compound 416, rac-5-(((2R,4R)-4-Hydroxypyrrolidin-2-yl)methoxy)-2-methyl-N-(1-(naphthalen-1-yl)cyclopropyl)benzamide] cannot be ordered by IC50: under 100 nM for the first, under 100 nM for the second.

Compared with Cc1ccc(OCCN(C)C)cc1C(=O)NC1(c2cccc3ccc(O)cc23)CC1 [Compound 417, 5-(2-(Dimethylamino)ethoxy)-N-(1-(7-hydroxynaphthalen-1-yl)cyclopropyl)-2-methylbenzamide], Cc1ccc(OCCN(C)C)cc1C(=O)NC1(c2ccc(O)cc2)CC1 [Compound 294, 5-(2-(Dimethylamino)ethoxy)-N-(1-(4-hydroxyphenyl)cyclopropyl)-2-methylbenzamide] is higher in IC50: under 100 nM for the first, over 5000 nM for the second. The first is the more potent here.

First: CNCC1Cc2cc(C)c(C(=O)NC3(c4cccc5ccccc45)CC3)cc2N1 (stereo not shown) [Compound 231, 5-Methyl-2-((methylamino)methyl)-N-(1-(naphthalen-1-yl)cyclopropyl)indoline-6-carboxamide]
Second: Cc1cc2c(cc1C(=O)NC1(c3cccc4ccccc34)CC1)N(C)CC2 [Compound 210, 1,5-Dimethyl-N-(1-(naphthalen-1-yl)cyclopropyl)indoline-6-carboxamide]
The IC50 of the first is lower: under 100 nM for the first, 100 to 1000 nM for the second. The first is the more potent here.

Compared with Cc1ncc(OCCN(C)C)cc1C(=O)NC1(c2cccc3ccccc23)CC1 [Compound 275, 5-(2-(Dimethylamino)ethoxy)-2-methyl-N-(1-(naphthalen-1-yl)cyclopropyl)nicotinamide], COC(=O)CCc1ccc(C)c(C(=O)NC2(c3cccc4ccccc34)CC2)c1 [Compound 431, Methyl 3-(4-methyl-3-((1-(naphthalen-1-yl)cyclopropyl)carbamoyl)phenyl) propanoate] is lower in IC50: 1000 to 5000 nM for the first, 100 to 1000 nM for the second. The second is the more potent here.

Compared with Cc1ccc(NC2CNC2)cc1C(=O)N1Cc2ccc(-c3ccc(CN4CCCC4)s3)cc2C1 [Compound 111, (5-(Azetidin-3-ylamino)-2-methylphenyl)(5-(5-(pyrrolidin-1-ylmethyl)thiophen-2-yl)isoindolin-2-yl)methanone], Cc1cc2cc(C3CNC3)[nH]c2cc1C(=O)N[C@H](C)c1cccc2ccccc12 [Compound 156, (R)-2-(Azetidin-3-yl)-5-methyl-N-(1-(naphthalen-1-yl)ethyl)-1H-indole-6-carboxamide] is lower in IC50: over 5000 nM for the first, 1000 to 5000 nM for the second.

First: Cc1cc2cc[nH]c2cc1C(=O)N[C@H](C)c1cccc2ccccc12 [Compound 153, (R)-5-Methyl-N-(1-(naphthalen-1-yl)ethyl)-1H-indole-6-carboxamide]
Second: Cc1cc2nc(CN)[nH]c2cc1C(=O)N[C@H](C)c1cccc2ccccc12 [Compound 128, (R)-2-(Aminomethyl)-5-methyl-N-(1-(naphthalen-1-yl)ethyl)-1H-benzo[d]imidazole-6-carboxamide]
The IC50 of the first is higher: 1000 to 5000 nM for the first, 100 to 1000 nM for the second. The second is the more potent here.

Cc1ccc(OC[C@@H]2CCN2C)cc1C(=O)NC1(c2cc(C(F)(F)F)cc3ncccc23)CC1 [Compound 600, (S)-2-Methyl-5-((1-methylazetidin-2-yl)methoxy)-N-(1-(7-(trifluoromethyl)quinolin-5-yl)cyclopropyl)benzamide] and Cc1ccc(OC[C@@H]2CCN2C)cc1C(=O)NC1(c2cc(OC(C)C)cc3ncccc23)CC1 [Compound 587, (S)-N-(1-(7-Isopropoxyquinolin-5-yl)cyclopropyl)-2-methyl-5-((1-methylazetidin-2-yl)methoxy)benzamide] cannot be ordered by IC50: under 100 nM for the first, under 100 nM for the second.

Compared with Cc1ccc(OC2COC2)cc1C(=O)N[C@H](C)c1cccc2ccccc12 [Compound 152, (R)-2-Methyl-N-(1-(naphthalen-1-yl)ethyl)-5-(oxetan-3-yloxy)benzamide], CNCc1nc2cc(C)c(C(=O)NC3(c4cccc5ccccc45)CC3)cc2o1 [Compound 426, 5-Methyl-2-((methylamino)methyl)-N-(1-(naphthalen-1-yl)cyclopropyl)benzo[d]oxazole-6-carboxamide] is lower in IC50: 1000 to 5000 nM for the first, 100 to 1000 nM for the second. The second is the more potent here.

In the case of Cc1cc2ccn(C)c2cc1C(=O)N(C)C1(c2cccc3ccccc23)CC1 [Compound 208, N,1,5-Trimethyl-N-(1-(naphthalen-1-yl)cyclopropyl)-1H-indole-6-carboxamide], the IC50 is reported as over 5000 nM.
